Measured values as given in patent publication US10703756B2, “Pyrrolo[2,3-D]pyrimidinyl, pyrrolo[2,3-B]pyrazinyl, pyrrolo[2,3-B]pyridinyl acrylamides and epoxides thereof” (Pfizer Inc., priority 2015, dated 2020).

Legend:
JAK3 enzyme = target: T1, JAK3 enzyme (Homo sapiens, UniProt P52333); assay: JAK Caliper Enzyme Assay at 4 μM ATP; type: biochemical
T1 sequence (P52333 1-1124): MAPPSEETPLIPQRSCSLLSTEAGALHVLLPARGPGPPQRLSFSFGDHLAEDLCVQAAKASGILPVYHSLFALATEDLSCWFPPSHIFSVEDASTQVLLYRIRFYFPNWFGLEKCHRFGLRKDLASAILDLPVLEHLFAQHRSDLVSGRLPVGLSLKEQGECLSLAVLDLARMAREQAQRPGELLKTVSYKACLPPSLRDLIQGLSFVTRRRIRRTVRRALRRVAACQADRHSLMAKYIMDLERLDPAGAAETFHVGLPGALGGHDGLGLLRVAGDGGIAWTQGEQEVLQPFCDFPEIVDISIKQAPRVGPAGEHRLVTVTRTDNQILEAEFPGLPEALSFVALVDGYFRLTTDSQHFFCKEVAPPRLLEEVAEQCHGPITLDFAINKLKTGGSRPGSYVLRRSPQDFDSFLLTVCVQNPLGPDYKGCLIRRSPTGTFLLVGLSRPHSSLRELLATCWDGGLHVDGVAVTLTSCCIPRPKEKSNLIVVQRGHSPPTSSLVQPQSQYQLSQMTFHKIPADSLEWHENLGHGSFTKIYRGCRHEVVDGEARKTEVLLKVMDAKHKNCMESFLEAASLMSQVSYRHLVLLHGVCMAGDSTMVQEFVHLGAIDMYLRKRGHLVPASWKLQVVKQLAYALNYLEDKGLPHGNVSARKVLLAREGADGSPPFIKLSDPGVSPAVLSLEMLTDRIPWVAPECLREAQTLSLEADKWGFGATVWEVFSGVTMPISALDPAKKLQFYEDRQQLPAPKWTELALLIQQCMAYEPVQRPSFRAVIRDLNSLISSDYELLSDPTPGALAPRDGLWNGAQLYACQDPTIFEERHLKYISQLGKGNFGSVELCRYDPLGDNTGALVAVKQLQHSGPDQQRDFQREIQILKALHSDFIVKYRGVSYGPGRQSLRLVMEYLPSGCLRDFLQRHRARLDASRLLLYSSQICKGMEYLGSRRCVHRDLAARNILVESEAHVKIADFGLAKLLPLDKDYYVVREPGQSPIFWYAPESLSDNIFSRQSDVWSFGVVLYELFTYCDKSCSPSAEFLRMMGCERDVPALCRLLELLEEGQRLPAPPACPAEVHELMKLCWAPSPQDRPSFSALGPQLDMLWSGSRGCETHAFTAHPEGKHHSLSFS
Summary of the method: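 Peptide phosphorylation by the kinase, adjusted to 20%-30% conversion, is measured by microfluidic separation of substrate and product on a Caliper LC3000. Compounds run as 11-point half-log series from a 600 μM DMSO top concentration.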

[1] = system: IL-15 induced P-STAT5 in human PBMC; assay: PBMC IL-15 Induced P-STAT5; type: cell-based; settings: human PBMC, IL-15 final 41 ng/mL; read-out: PBMC IL15_pSTAT5_IC50
Summary of the method: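 Flow cytometry gated on total lymphocytes measured STAT5 staining (Alexa Fluor 647 antibody, overnight, 4 °C) in fixed, methanol-permeabilised human PBMC. Cells had received compound for 15 min at 37 °C (0.2% DMSO final), followed by 41 ng/mL final human IL-15 for 15 min.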

| IC50 (JAK3 enzyme) | Compound | IC50 [1] |
| --- | --- | --- |
| 0.667 nM | C=CC(=O)N1CCN(c2cnc3[nH]cc(C(=O)N[C@H]4CCO[C@H]4C)c3n2)CC1(C)C [Example 166, 3-({[2-(4-acryloyl-3,3-dimethylpiperazin-1-yl)-5H-pyrrolo[2,3-b]pyrazin-7-yl]carbonyl}amino)-2,5-anhydro-1,3,4-trideoxy-L-threo-pentitol] | 168 nM |
| 0.875 nM | C=CC(=O)N1CCC[C@H](Nc2cnc3[nH]cc(C(=O)NCC)c3n2)C1 (single isomer, unassigned) [Example 36] | 176 nM |
| 0.424 nM | C=CC(=O)N1C[C@@H](CF)C[C@@H](Nc2ncnc3[nH]ccc23)C1 (single isomer, unassigned) [Example 103] | 155 nM |
| 0.376 nM | C=CC(=O)N1CCN(c2cnc3[nH]cc(C(=O)NCC(C)C)c3n2)C[C@@H]1CC(C)C [Example 288, 2-[(3S)-4-acryloyl-3-(2-methylpropyl)piperazin-1-yl]-N-(2-methylpropyl)-5H-pyrrolo[2,3-b]pyrazine-7-carboxamide] | 151 nM |
| 0.209 nM | C=CC(=O)N1CCC(Oc2cnc3[nH]cc(C(=O)N[C@H](C)COC)c3n2)CC1 [Example 214, 2-[(1-acryloylpiperidin-4-yl)oxy]-N-[(2R)-1-methoxypropan-2-yl]-5H-pyrrolo[2,3-b]pyrazine-7-carboxamide] | 56.9 nM |
| 0.408 nM | C=CC(=O)N1C[C@@H](CC#N)C[C@@H](Nc2ncnc3[nH]ccc23)C1 (racemic) [Example 105, Cis-racemic-[1-acryloyl-5-(7H-pyrrolo[2,3-d]pyrimidin-4-ylamino)piperidin-3-yl]acetonitrile] | 324 nM |
| 0.448 nM | C=CC(=O)N1CCC(Nc2cnc3[nH]cc(C(=O)NCC4CC4)c3n2)CC1 [Example 172, 2-[(1-acryloylpiperidin-4-yl)amino]-N-(cyclopropylmethyl)-5H-pyrrolo[2,3-b]pyrazine-7-carboxamide] | 81.3 nM |
| 0.578 nM | C=CC(=O)N1CC[C@H](Nc2cnc3[nH]cc(C(=O)NCC(C)CC(F)(F)F)c3n2)[C@H](OC)C1 (mixture of isomers) [Example 328, Racemic-2-{[(3R,4S)-1-acryloyl-3-methoxypiperidin-4-yl]amino}-N-(4,4,4-trifluoro-2-methylbutyl)-5H-pyrrolo[2,3-b]pyrazine-7-carboxamide] | 143 nM |
| 0.479 nM | C=CC(=O)N1CCC(Nc2cnc3[nH]cc(C(=O)NCc4ccccc4F)c3n2)CC1 [Example 196, 2-[(1-acryloylpiperidin-4-yl)amino]-N-(2-fluorobenzyl)-5H-pyrrolo[2,3-b]pyrazine-7-carboxamide] | 54.7 nM |
| 0.608 nM | C=CC(=O)N1CC[C@@H](Oc2cnc3[nH]cc(C(=O)NCC)c3n2)C[C@@H]1C (single isomer, unassigned) [Example 79] | 264 nM |
| 0.211 nM | C=CC(=O)N1CCC(Oc2cnc3[nH]cc(C(=O)NC(C)C4CC4)c3n2)CC1 (racemic) [Example 220, Racemic-2-[(1-acryloylpiperidin-4-yl)oxy]-N-(1-cyclopropylethyl)-5H-pyrrolo[2,3-b]pyrazine-7-carboxamide] | 100 nM |
| 0.437 nM | C=CC(=O)N1CCC(Nc2cnc3[nH]cc(C(=O)NCc4cccc(F)c4)c3n2)CC1 [Example 176, 2-[(1-acryloylpiperidin-4-yl)amino]-N-(3-fluorobenzyl)-5H-pyrrolo[2,3-b]pyrazine-7-carboxamide] | 24 nM |
| 0.279 nM | C=CC(=O)N1CCC(Oc2cnc3[nH]cc(C(=O)N[C@H](C)CC)c3n2)CC1 [Example 227, 2-[(1-acryloylpiperidin-4-yl)oxy]-N-[(2R)-butan-2-yl]-5H-pyrrolo[2,3-b]pyrazine-7-carboxamide] | 146 nM |
| 0.328 nM | C=CC(=O)N1CC[C@@H](Nc2cnc3[nH]cc(C(=O)NCC)c3n2)[C@@H](C)C1 (single isomer, unassigned) [Example 38] | 205 nM |
| 0.582 nM | C=CC(=O)N1CCC(Oc2cnc3[nH]cc(C(=O)N[C@@H]4CCC[C@H]4F)c3n2)CC1 [Example 229, 2-[(1-acryloylpiperidin-4-yl)oxy]-N-[(1R,2R)-2-fluorocyclopentyl]-5H-pyrrolo[2,3-b]pyrazine-7-carboxamide] | 221 nM |
| 0.485 nM | C=CC(=O)N1CCN(c2cnc3[nH]cc(C(=O)N[C@@H](C)COC)c3n2)CC1(C)C [Example 298, 2-(4-acryloyl-3,3-dimethylpiperazin-1-yl)-N-[(2S)-1-methoxypropan-2-yl]-5H-pyrrolo[2,3-b]pyrazine-7-carboxamide] | 210 nM |
| 0.219 nM | C=CC(=O)N1C[C@H](COCCC#N)C[C@H](Nc2ncnc3[nH]ccc23)C1 [Example 101, 3-{[(3R,5S)-1-Acryloyl-5-(7H-pyrrolo[2,3-d]pyrimidin-4-ylamino)piperidin-3-yl]methoxy}propanenitrile] | 227 nM |
| 0.546 nM | C=CC(=O)N1CCN(c2cnc3[nH]cc(C(=O)N[C@H](C)COC)c3n2)CC1(C)C [Example 327] | 261 nM |
| 0.411 nM | C=CC(=O)N1CCC(Oc2cnc3[nH]cc(C(=O)NC45CC(C4)C5)c3n2)CC1 [Example 200, 2-[(1-acryloylpiperidin-4-yl)oxy]-N-(bicyclo[1.1.1]pent-1-yl)-5H-pyrrolo[2,3-b]pyrazine-7-carboxamide] | 149 nM |
| 0.262 nM | C=CC(=O)N1CCN(c2cnc3[nH]cc(C(=O)N[C@H](C)COC)c3n2)CC1 [Example 332] | 87.7 nM |
| 0.442 nM | C=CC(=O)N1CCC(Nc2cnc3[nH]cc(C(=O)NCCC4CC4)c3n2)CC1 [Example 178, 2-[(1-acryloylpiperidin-4-yl)amino]-N-(2-cyclopropylethyl)-5H-pyrrolo[2,3-b]pyrazine-7-carboxamide] | 88.6 nM |
| 0.702 nM | C=CC(=O)N1CC[C@@H](Oc2cnc3[nH]cc(C(=O)NCC)c3n2)C[C@@H]1C (racemic) [Example 77, Trans-racemic-2-{[1-acryloyl-2-methylpiperidin-4-yl]oxy}-N-ethyl-5H-pyrrolo[2,3-b]pyrazine-7-carboxamide] | 561 nM |
| 0.418 nM | C=CC(=O)N1CCC(C)(Nc2cnc3[nH]cc(C(=O)NC4CCC4)c3n2)CC1 [Example 324, 2-[(1-acryloyl-4-methylpiperidin-4-yl)amino]-N-cyclobutyl-5H-pyrrolo[2,3-b]pyrazine-7-carboxamide] | 203 nM |
| 1.18 nM | C=CC(=O)N1CC[C@@H](Oc2cnc3[nH]cc(C(=O)NCC)c3n2)[C@H](C)C1 (single isomer, unassigned) [Example 47] | 363 nM |
| 0.455 nM | C=CC(=O)N1CC[C@H](Nc2cnc3[nH]cc(C(=O)NCC)c3n2)[C@H](OC)C1 [Example 326, 2-{[(3R,4S)-1-acryloyl-3-methoxypiperidin-4-yl]amino}-N-ethyl-5H-pyrrolo[2,3-b]pyrazine-7-carboxamide] | 330 nM |
| 0.159 nM | C=CC(=O)N1CC[C@H](Nc2cnc3[nH]cc(C(=O)NCC)c3n2)C[C@H]1C (single isomer, unassigned) [Example 41] | 147 nM |
